Measurements: the NIST ThermoML archive (doi:10.1021/je100484n)

Columns and labels:
[1] = refractive index (Na D-line) (dimensionless); details: 101.33 kPa, Liquid
[2] = 101 kPa, Liquid
[3] = refractive index (Na D-line) (dimensionless); xn = mol fraction of the nth substance listed; details: 101 kPa, Liquid
[4] = xn = mol fraction of the nth substance listed; details: 101 kPa, Liquid, x2 = 0

CC(C)(C)O [2-methylpropan-2-ol]
Details	mass density, 303.15 K [kg/m3]	mass density, 308.15 K [kg/m3]	mass density, 313.15 K [kg/m3]	mass density, 318.15 K [kg/m3]	mass density, 323.15 K [kg/m3]	refractive index, 303.15 K	refractive index, 308.15 K	refractive index, 313.15 K	refractive index, 318.15 K	refractive index, 323.15 K
[1]	–	–	–	–	–	1.38222	1.37947	1.37667	1.37384	1.37097
[2]	775.412	770.193	764.884	759.488	754.015	–	–	–	–	–

CC(C)(C)O [2-methylpropan-2-ol] + NC1CCCCC1
[3], x1 = 1
Details	refractive index
303.15 K	1.38222
308.15 K	1.37947
313.15 K	1.37667
318.15 K	1.37384
323.15 K	1.37097

NC1CCCCC1 [cyclohexylamine]
[1]
Details	refractive index
303.15 K	1.45375
308.15 K	1.45114
313.15 K	1.44856
318.15 K	1.44599
323.15 K	1.44336

NC1CCCCC1 [cyclohexylamine] + CC(C)(C)O
refractive index, [3]
Details	303.15 K	308.15 K	313.15 K	318.15 K	323.15 K
x2 = 0	1.45375	1.45114	1.44856	1.44599	1.44336
x2 = 0.0508	1.45149	1.44888	1.44629	1.44368	1.44108
x2 = 0.1002	1.44914	1.44655	1.44395	1.44132	1.43876
x2 = 0.1502	1.44664	1.44404	1.44142	1.43884	1.43629
x2 = 0.2001	1.44406	1.44146	1.43888	1.4363	1.43371
x2 = 0.3005	1.43846	1.43586	1.43328	1.43068	1.42812
x2 = 0.3991	1.4325	1.42991	1.42732	1.42471	1.42218
x2 = 0.4996	1.42579	1.42321	1.42064	1.41804	1.41553
x2 = 0.5998	1.41855	1.41598	1.41339	1.41077	1.40818
x2 = 0.6997	1.41063	1.40805	1.40544	1.40284	1.40018
x2 = 0.7999	1.40191	1.39934	1.39676	1.39405	1.3914
x2 = 0.8712	1.39554	1.39281	1.39012	1.38734	1.38459
x2 = 0.8992	1.39261	1.38996	1.38723	1.3845	1.38176
x2 = 0.9504	1.38751	1.3848	1.38207	1.37923	1.37642

NC1CCCCC1 [cyclohexylamine] + CCCCCCC
refractive index, [3]
Details	303.15 K	308.15 K	313.15 K	318.15 K	323.15 K
x1 = 0.0501	1.38508	1.38246	1.37983	1.37719	1.37451
x1 = 0.1002	1.38768	1.38507	1.38246	1.37983	1.37717
x1 = 0.1501	1.39038	1.38778	1.38516	1.38255	1.37991
x1 = 0.2305	1.39503	1.39245	1.38984	1.38719	1.38449
x1 = 0.3004	1.3993	1.39673	1.3941	1.39149	1.38874
x1 = 0.401	1.40584	1.40324	1.40059	1.39797	1.39527
x1 = 0.4497	1.40915	1.40655	1.40392	1.40129	1.39851
x1 = 0.5597	1.41708	1.41446	1.41182	1.40915	1.40647
x1 = 0.6001	1.42001	1.41739	1.41478	1.41215	1.40951
x1 = 0.6498	1.4238	1.4212	1.41859	1.41595	1.41327
x1 = 0.6994	1.42771	1.4251	1.42248	1.41981	1.41719
x1 = 0.7999	1.43588	1.43327	1.43065	1.428	1.42528
x1 = 0.8992	1.44452	1.44189	1.43928	1.43667	1.43405
x1 = 1	1.45375	1.45114	1.44856	1.44599	1.44336

CCCCCCC [heptane]
Details	mass density, 303.15 K [kg/m3]	mass density, 308.15 K [kg/m3]	mass density, 313.15 K [kg/m3]	mass density, 318.15 K [kg/m3]	mass density, 323.15 K [kg/m3]	refractive index, 303.15 K	refractive index, 308.15 K	refractive index, 313.15 K	refractive index, 318.15 K	refractive index, 323.15 K
[1]	–	–	–	–	–	1.38259	1.37995	1.37731	1.37463	1.37197
[2]	675.229	670.941	666.621	662.273	657.896	–	–	–	–	–

CCCCCCC [heptane] + CC(C)(C)O
[3], x2 = 0
Details	refractive index
303.15 K	1.38259
308.15 K	1.37995
313.15 K	1.37731
318.15 K	1.37463
323.15 K	1.37197

[4]
Details	mass density [kg/m3]
303.15 K	675.229
308.15 K	670.941
313.15 K	666.621
318.15 K	662.273
323.15 K	657.896

CCCCCCC [heptane] + NC1CCCCC1
[3], x2 = 0
Details	refractive index
303.15 K	1.38259
308.15 K	1.37995
313.15 K	1.37731
318.15 K	1.37463
323.15 K	1.37197
